pIC50, pKi: −log10 of the molar value. Where two headings read alike, the source gives them in different places.
Experiments:
[1] = molecular target: SARS-CoV-2 NSP3 macrodomain (Mac1) (Severe acute respiratory syndrome coronavirus 2, UniProt P0DTD1); assay: biochemical; format: binding; settings: for pKi: read-out: SARS CoV-2 macrodomain HTRF assay: Ki; for Ligand efficiency (binding enery per heavy atom): from SARS CoV-2 macrodomain HTRF assay
[2] = molecular target: SARS-CoV-2 NSP3 macrodomain (Mac1), P43 crystal form (Severe acute respiratory syndrome coronavirus 2, UniProt P0DTD1); format: binding; settings: for binding by crystal soaking: P43 crystal form, repeated attempts, in words
[3] = Dose-response, SARS CoV-2 macrodomain HTRF assay, read-out: IC50
[4] = Single dose, 200 μM, mean of three technical replicates
[5] = ligand modeling in Mac1 crystal soak
[6] = Single dose, concentration 200 μM, read-out: Average % competition
[7] = preliminary screen, compound at 200 μM, mean of 3-4 technical replicates, read-out: % competition in HTRF assay
[8] = dose-response, read-out: SARS CoV-2 macrodomain HTRF assay: IC50
[9] = ligand modeling in Mac1 crystal structure
[10] = Single dose, concentration 200 μM, read-out: SARS CoV-2 macrodomain HTRF assay: Average % competition

Cn1ccc2cc(NC(=O)C3CC(=O)NC4CCCCC43)ccc21 (stereo not drawn) [AVI-342]
Average % competition [1]: <10%

Cc1ncc(CN(C)C(=O)c2cccc(N)c2F)s1 [AVI-293]
pIC50 [1, 3]: < 3.00 | Average % competition [1, 4]: 14%

Cc1nc(N)ncc1C(=O)NCC(O)Cc1ccc(Cl)cc1 (stereo not drawn) [AVI-343]
Average % competition [1]: <10%

Nc1ncc(Cl)cc1S(=O)(=O)N1CCCC(O)C1 (stereo not drawn) [AVI-295]
binding by crystal soaking [2]: failed to observe binding

O[C@H]1COC[C@@H]1Nc1ncnc2[nH]ccc12 [AVI-1444, (3R,4S)-4-((7H-pyrrolo[2,3-d]pyrimidin-4-yl)amino)tetrahydrofuran-3-ol]
Number of isomers bound [2, 5]: 1

O=[N+]([O-])c1ccc(C(O)C(CO)Nc2ncnc3[nH]ccc23)cc1 (stereo not drawn) [AVI-3672]
inhibition at 200 µM [1, 6]: 43% | inhibition at 200 µM [1, 7]: 43%

CC1CCCC1OC(=O)Cn1cnc2c1c(=O)n(C)c(=O)n2C (stereo not drawn) [AVI-335]
Average % competition [1]: <10%

OCC1CCC2(CCOCC2)CN1c1ncnc2[nH]ccc12 (stereo not drawn) [AVI-4065]
pIC50 [1, 8]: 3.37 | pKi ([1]; dose-response): 3.40 | Ligand efficiency (binding enery per heavy atom) [1]: 0.21

O=C(O)C1CCc2nnc(-c3ccc(F)cc3)n2C1 (stereo not drawn) [AVI-326]
Average % competition [1]: 15%

Cc1ccc(CC(=O)N2CCSC23CC(C(=O)O)C3)cc1O (stereo not drawn) [AVI-347]
Average % competition [1]: <10%

Nc1ccc(F)c(C(=O)NCc2cnc(O)nc2O)c1F [AVI-312]
Average % competition [1]: <10%

Cc1nnc2n1CCN(C(=O)CN1C(=O)CCOc3ccccc31)C2 [AVI-302]
Average % competition [1]: 0%

CC(C)(C)C1CCCN1c1ncnc2[nH]ccc12 (stereo not drawn) [AVI-6000]
Number of isomers bound [2, 9]: 1

OC1(CNc2ncnc3[nH]ccc23)CCC2(CC1)OCCO2 [AVI-4315]
pIC50 [1, 8]: 3.68 | pKi ([1]; dose-response): 3.70 | Ligand efficiency (binding enery per heavy atom) [1]: 0.23

O=C(O)C(F)(F)F.OCC(Nc1ncnc2[nH]ccc12)C(O)C1CCCCC1 (stereo not drawn) [AVI-3687]
inhibition at 200 µM [1, 6]: 33% | inhibition at 200 µM [1, 7]: 33%

CNC(=O)c1ccc(NC(=O)C2CC(=O)Nc3ccccc32)cc1 (stereo not drawn) [AVI-305]
Average % competition [1]: 0%

CNS(=O)(=O)c1cc(C(=O)N2CCOc3ccccc32)n(C)c1 [AVI-309]
Average % competition [1]: 0%

O=C(O)C1CN(C(=O)c2ccc3[nH]nnc3c2)c2ccccc21 (stereo not drawn) [AVI-319]
Average % competition [1]: 25%

O=C1OC(CSC2CCC(O)C2)CN1C1CCCCC1 (stereo not drawn) [AVI-6019]
pIC50 ([1]; read-out: IC50): < 3.00

N#Cc1cnc(CSc2nc(-c3ccccc3)co2)nc1N [AVI-332]
Average % competition [1]: <10%

CC(NC(=O)c1ccc(N)nc1Cl)C(O)c1cccc(F)c1 (stereo not drawn) [AVI-349]
Average % competition [1]: 15%

O=C(O)C(c1ccccc1)n1sc2ccccc2c1=O (stereo not drawn) [AVI-288]
Number of isomers bound [2, 9]: 1

Cc1nn(C)c2sc(C(=O)N3CC(C(=O)O)c4ccccc43)cc12 (stereo not drawn) [AVI-327]
Average % competition [1]: 0%

O=C(O)C(F)(F)F.OCC1C2C=CC(C2)N1c1ncnc2[nH]ccc12 (stereo not drawn) [AVI-3712]
inhibition at 200 µM [1, 10]: 55% | inhibition at 200 µM [1, 7]: 55%

O=C(O)C(F)(F)F.OC1c2ccccc2CC1Nc1ncnc2[nH]ccc12 (stereo not drawn) [AVI-3634]
inhibition at 200 µM [1, 6]: < 10% | inhibition at 200 µM [1, 7]: < 10%

OCC1(Nc2ncnc3[nH]ccc23)COC1 [AVI-5649]
inhibition at 200 µM [1, 6]: < 10% | inhibition at 200 µM [1, 7]: < 10%

NC(=O)N1CCC[C@H]1C(=O)Nc1ccc2ncnn2c1 [AVI-330]
Average % competition [1]: 14%

COc1ccc(-c2nccc(N3CCC(c4ccsc4)CC3)n2)cc1 [AVI-344]
Average % competition [1]: <10%

CC(O)C1CCN(c2cc(N3CCC(c4ccccc4)CC3C)ncn2)C1 (stereo not drawn) [AVI-6016]
pIC50 ([1]; read-out: IC50): < 3.00

Nc1ncnc2sc3c(c12)CCN(C(=O)[C@H]1CC=CCC1)C3 [AVI-331]
Average % competition [1]: <10%

O=C(O)C(F)(F)F.OCC(Cc1cccc(F)c1)Nc1ncnc2[nH]ccc12 (stereo not drawn) [AVI-3706]
inhibition at 200 µM [1, 6]: 77% | inhibition at 200 µM [1, 7]: 77%

COC1CCCN(S(=O)(=O)c2cc(Cl)cnc2N)C1 (stereo not drawn) [AVI-290]
binding by crystal soaking [2]: failed to observe binding

CC(Nc1ncnc2[nH]ccc12)C1(O)CCCCC1 (stereo not drawn) [AVI-4321]
pIC50 [1, 8]: 4.32 | pKi ([1]; dose-response): 4.35 | Ligand efficiency (binding enery per heavy atom) [1]: 0.32

O=C(c1cc(C2CCCCC2)[nH]n1)N1CCCC(O)(C(F)(F)F)CC1 (stereo not drawn) [AVI-318]
Average % competition [1]: 13%

O=C1CC(C(=O)Nc2nc3c(s2)CCCC3)c2ccccc2N1 (stereo not drawn) [AVI-307]
Average % competition [1]: 0%

Cc1nc(-c2cccc(NC(=O)NCc3cccs3)c2)n[nH]1 [AVI-306]
pIC50 [1, 3]: < 3.00 | Average % competition [1, 4]: 20%

O[C@@H]1CNCC[C@H]1Nc1ncnc2[nH]ccc12 [AVI-613]
inhibition at 200 µM [1, 6]: < 10% | inhibition at 200 µM [1, 7]: < 10%

c1ccc(-n2nnnc2CSc2nnc(NC3CC3)s2)cc1 [AVI-286]
Isomers modeled [2]: achiral | Number of isomers bound [2]: 1

CC(C(=O)NCc1c(C(=O)O)[nH]c2ccccc12)n1cncn1 (stereo not drawn) [AVI-337]
Average % competition [1]: 14%

Nc1ncnc(N2CCC(C(F)(F)F)C3(CCC3)C2)c1Cl (stereo not drawn) [AVI-324]
Average % competition [1]: <10%

CC1(c2ccc(F)cc2)CN(C(=O)c2cnc(N)nc2C(F)(F)F)C1 [AVI-340]
Average % competition [1]: 20%

CC(C)CCC(CO)Nc1ncnc2[nH]ccc12.O=C(O)C(F)(F)F (stereo not drawn) [AVI-3668]
inhibition at 200 µM [1, 6]: 38% | inhibition at 200 µM [1, 7]: 38%

Cc1ccc(N2CCN(c3ncnc(-c4ccccc4)n3)CC2=O)cc1 [AVI-336]
Average % competition [1]: <10%

CC1c2ccsc2CCN1C(=O)Cc1csc(-c2ccccc2)n1 (stereo not drawn) [AVI-287]
Average % competition [1]: 0%

Cc1noc(NCc2cc3ccccc3nc2O)n1 [AVI-322]
Average % competition [1]: 0%

O=C(Nc1ccsc1C(=O)O)c1ccc2c(c1)OCO2 [AVI-316]
Number of isomers bound [2, 5]: 1 | Isomers modeled ([2]; stereoisomer(s) of ligand modeled in Mac1 crystal structure): achiral

Cc1ccc2c(c1)C(=O)N(CCC(=O)Nc1cnc3c(c1)c(C)nn3C)C2=O [AVI-301]
Average % competition [1]: 16%

O[C@H]1CNCC[C@@H]1Nc1ncnc2[nH]ccc12 [AVI-615]
inhibition at 200 µM [1, 10]: < 10% | inhibition at 200 µM [1, 7]: < 10%

O=c1[nH]c2ccccc2cc1CNc1nc(C2CC2)ns1 [AVI-346]
pIC50 [1, 3]: < 3.00 | Average % competition [1, 4]: <10%

O=C(O)C1CN(C(=O)c2cccc3[nH]ccc23)c2ccccc21 (stereo not drawn) [AVI-314]
pIC50 [1, 3]: < 3.00 | Average % competition [1, 4]: 32%

CC1(C)CCC(O)(CNc2ncnc3[nH]ccc23)CC1 [AVI-4310]
pIC50 [1, 8]: 4.12 | pKi ([1]; dose-response): 4.15 | Ligand efficiency (binding enery per heavy atom) [1]: 0.29

O=C(O)C(F)(F)F.OCC(CC1CCOCC1)Nc1ncnc2[nH]ccc12 (stereo not drawn) [AVI-3676]
inhibition at 200 µM [1, 6]: < 10% | inhibition at 200 µM [1, 7]: < 10%

CC(C)(C)C(O)CC(CO)Nc1ncnc2[nH]ccc12.O=C(O)C(F)(F)F (stereo not drawn) [AVI-3714]
inhibition at 200 µM [1, 6]: < 10% | inhibition at 200 µM [1, 7]: < 10%

CN(C)C[C@@]1(O)CCCN(c2ncnc3[nH]ccc23)C1 [AVI-614]
inhibition at 200 µM [1, 6]: < 10% | inhibition at 200 µM [1, 7]: < 10%

Nc1cccc(CSC2CCc3ccccc32)n1 (stereo not drawn) [AVI-6015]
pIC50 ([1]; read-out: IC50): < 3.00

c1ccn2c(Sc3ncnc4ccsc34)nnc2c1 [AVI-308]
Average % competition [1]: 0%

CC(=O)Nc1ccc(S(=O)(=O)CCCN2C(=O)CC(C)(C(C)C)C2=O)cc1 (stereo not drawn) [AVI-299]
Average % competition [1]: 19%

Cc1ccc(C(=O)O)cc1NCc1ccc2nsnc2c1 [AVI-6018]
pIC50 ([1]; read-out: IC50): < 3.00

O=C(O)C(F)(F)F.OCC(Nc1ncnc2[nH]ccc12)C1CCCO1 (stereo not drawn) [AVI-3645]
inhibition at 200 µM [1, 6]: 54% | inhibition at 200 µM [1, 7]: 54%

Cc1ccc(O)c(C(=O)c2cnn3c(N)nnc3c2)c1 [AVI-310]
Average % competition [1]: 0%

Cc1ccc(C)c(CN2C(=O)NC(C)(Cc3ccc4c(c3)OCO4)C2=O)c1 (stereo not drawn) [AVI-320]
Average % competition [1]: 18%

Cn1c(=O)[nH]c(=O)c2c1nc(Br)n2CC(=O)C1CCC(F)(F)CC1 [AVI-6020]
pIC50 ([1]; read-out: IC50): < 3.00

O[C@@]1(Cn2ccnn2)CCCN(c2ncnc3[nH]ccc23)C1 [AVI-608]
inhibition at 200 µM [1, 6]: 8% | inhibition at 200 µM [1, 7]: < 10%

Cc1ccc2c(c1)CC[C@@H](C(=O)Nc1nnc3n1CCCC3)O2 [AVI-329]
Number of isomers bound [2]: 1

O=C(O)C1CN(C(=O)c2ccc3c(c2)OCCO3)CCO1 (stereo not drawn) [AVI-323]
Average % competition [1]: 7%

O=C(O)C(F)(F)F.OC[C@@H](CCc1ccccc1)Nc1ncnc2[nH]ccc12 [AVI-3654]
inhibition at 200 µM [1, 6]: 27% | inhibition at 200 µM [1, 7]: 27%

CC1CN(C(=O)c2ccccc2S(C)(=O)=O)c2cccnc2O1 (stereo not drawn) [AVI-294]
Average % competition [1]: 13%

Nc1ncnc(N2CCCCC3(CCC3)C2)c1Cl [AVI-6017]
pIC50 ([1]; read-out: IC50): < 3.00

CC(=O)Nc1ccc(NC(=O)CSc2nnnn2C2CCCC2)cc1 [AVI-315]
Average % competition [1]: 0%

CCOc1ccc(-c2nc(CC(=O)N3CCn4cccc4C3C)cs2)cc1 (stereo not drawn) [AVI-325]
Average % competition [1]: 0%

Cc1c[nH]c2ncnc(NCC3(O)CCC(C)(C)CC3)c12 [AVI-4330]
pIC50 [1, 8]: 3.19 | pKi ([1]; dose-response): 3.21 | Ligand efficiency (binding enery per heavy atom) [1]: 0.21

CCCC1CCCC1C(=O)N[C@H]1CCc2nc(N)sc2C1 (stereo partly drawn) [AVI-298]
Average % competition [1]: <10%

Nc1cc(N2CCC3CCCCC3C2)ncn1 (stereo not drawn) [AVI-339]
pIC50 [1, 3]: < 3.00 | Average % competition [1, 4]: <10%

O=C(O)c1ccc2c(c1)C(NC(=O)C1CCn3ncnc3C1)CCC2 (stereo not drawn) [AVI-333]
Average % competition [1]: 21%

O=C(NCCCN1C(=O)NC2(CCCC2)C1=O)c1ccc(O)nc1 [AVI-300]
Average % competition [1]: 8%

O=C1COc2cc(C(=O)N3CC(C(=O)O)c4ccccc43)ccc2N1 (stereo not drawn) [AVI-289]
pIC50 [1, 3]: < 3.00 | Average % competition [1, 4]: 21%

Cc1nc2cc(NC(=O)C3CC(=O)Nc4ccccc43)ccc2o1 (stereo not drawn) [AVI-292]
Average % competition [1]: 0%

CC(OC(=O)c1ccc2nc(N)sc2c1)C(=O)N1CCCCCC1 (stereo not drawn) [AVI-304]
Average % competition [1]: 0%
